From US20240165089A1, “METHOD FOR TREATING MYOPIA WITH VINPOCETINE” (EYE HOSPITAL, WENZHOU MEDICAL UNIVERSITY, priority 2021, published 2024)
Where two headings read alike, the source gives them in different places.

Tests used:
[1] = test system: choroid of FDM guinea pigs; test: choroidal thickness and blood flow by OCTA, FDM group; assay type: in vivo, guinea pig
Protocol: The choroidal blood flow parameters and choroidal thickness were measured for the animals in the above FDM group after 1 week of continuous administration and at the end of the 2 week-administration experiment and for the animals in the LIM group at the end of the 7 day-administration experiment. Choroidal blood flow parameters and thickness were measured using a modified commercial OCTA (Spectralis HRA+OCT, OCTA, Heidelberg, Germany) which is more suitable for animal eyeballs. Before the measurement, the guinea pigs were fully anesthetized (a mixture of ketamine hydrochloride 60 mg/kg and xylazine hydrochloride 9 mg/kg, intraperitoneally injected), and then the guinea pig OCTA images were obtained, and the measurement results were quantified through a self-written program (MatLab R2017a, MathWorks). Real-time quantitative detection of choroidal blood flow and thickness in guinea pigs was achieved (Sen Zhang, Invest Ophthalmol Vis Sci. 2019 Jul. 1; 60(8):3074-3083).
Vinpocetine is known to improve blood circulation. The inventors used the method of example 1 to detect changes of indicator signals of choroidal thickness ChT and choroidal blood flow ChBP of FDM (1 week and 2 weeks of administration) and LIM (1 week of administration) at different time points during the administration cycle.

[2] = test system: lens induction myopia (LIM, −4D lens) guinea pig model; test: lens induction myopia (LIM) guinea pig model, injection around the eyeball; assay type: in vivo
Source text: The form deprivation and lens-induced guinea pig myopia model is a classic and recognized myopia animal model in the field. The model can be used to evaluate the efficacy and safety of drugs for treating myopia. The construction method of the model is well known to those skilled in the art. The animal modeling and administration route in this application refer to the scientific literature previously published by this research group (Sen Zhang, Invest Ophthalmol Vis Sci. 2019 Jul. 1; 60(8):3074-3083.; Miaozhen Pan, Exp Eye Res. 2021 January; 202:108332.), specifically, this application uses the following exemplary construction method of the form deprivation and lens-induced guinea pig myopia model:
(§1) three-week-old tricolor guinea pigs (both male and female, simulating humans aged 3-26 years old) were used and raised in the experimental animal room of Wenzhou Medical University in a 12-hour light (400-500 lux)/12-hour dark environment with free access to water and food. The myopia model adopted monocular form deprivation (FD) and lens induction (LI) modeling methods. […] In the lens induction group, a −4D lens was fixed in front of the right eye of the animal, and the left eye obtained normal vision. For the above animals, the lenses were cleaned twice a day to prevent the lenses from blurring. The animals in the experimental group were administrated at 9:00-9:30 am every day. […] The administration process for each animal was controlled in about 10 seconds. Administration began on the day of modeling, and was continuous for 2 weeks for the form deprivation group and was continuous for 1 week for the lens induction group. This experiment has been reviewed by the Experimental Animal Ethics Committee of Wenzhou Medical University.
The inventors prepared a 5 μM (i.e., 1.75 μg/mL) vinpocetine stock solution and stored at −80° C. The solvent was physiological saline. Before administration experiment, the stock solution was diluted with physiological saline to 1 μM, 0.1 μM, and 0.01 μM, respectively. During the formulation process of vinpocetine eye drops, the solubility can be increased by using conventional physical methods such as heating and stirring, or acids can also be used to adjust the PH value to increase solubility, and finally, the PH value can be adjusted to 7.31.
2. Lens induction plus drug injection group: • wearing a −4D lens on one eye and injecting vinpocetine (0.01 μM: 0.1 mL/day) into the eye wearing the −4D lens for 1 weeks, sample size=12; • wearing a −4D lens on one eye and injecting vinpocetine (0.1 μM: 0.1 mL/day) into the eye wearing the −4D lens for 1 weeks, sample size=12; • wearing a −4D lens on one eye and injecting vinpocetine (1.00 μM 0.1 mL/day) into the eye wearing the −4D lens for 1 weeks, sample size=13; • 3.
All animals in the same model efficacy experiment were measured within the same time period, and the first measurement was at 3 weeks of age, that is, before drug administration. Refractions and eyeball parameters were measured for the animals in the above FDM group before the experiment, after 1 week of administration in the experiment and after 2 weeks of administration in the experiment and for the animals in the LIM group before the experiment, after 3 days of administration in the experiment and after 7 days of administration in the experiment, respectively. The refractions were measured using an eccentric infrared photoretinoscope (EIR) built in our laboratory. Each eye was measured three times and the average was taken as the final result. The axial parameters of the guinea pig's eyeballs were measured using the A-ultrasound probe in the CinescanA/B ultrasonic diagnostic instrument (QuantelMedical, Aviso, France). The ultrasonic frequency was 11 MHz. The ultrasonic propagation speeds of different refractive media of the eyeball were set as: 1557.5 m/s for the anterior chamber, 1723.3 m/s for the lens, and 1540 m/s for the vitreous body.

[3] = test system: form deprivation myopia model of guinea pigs; test: FDM guinea pig model, subconjunctival injection, salmeterol/tiotropium/vinpocetine; details: FDM, vinpocetine 1 μM alone, subconjunctival, 2 weeks
Source text: The form deprivation myopia model of guinea pigs described in the present invention was used to evaluate the efficacy. […] On the first day of the experiment, guinea pigs were subjected to form deprivation at 8 a.m. using a mask method, with the right eye covered (experimental eye) and the left eye uncovered (contralateral eye). Starting from the day of modeling, solvents or drugs for the corresponding groups were given to the experimental eyes at 9-10 a.m. every day by eyeball subconjunctival injection at an injection volume of 100 μL, once a day for 2 weeks. The refraction and axial parameters of the animals were detected before the start of the efficacy experiment and at the end of the experiment. All data collection and processing methods were the same as in other embodiments of the present invention. The statistical basis was the difference between the experimental eye and the contralateral eye of the same subject individual.

rats = details: rat, in vivo, cited from earlier work
guinea pigs = test: safety observation during local administration to young guinea pigs; assay type: in vivo, guinea pig
Source text: as §1

## CCOC(=O)C1=C[C@]2(CC)CCCN3CCc4c(n1c1ccccc41)[C@@H]32 [vinpocetine]
[1]; 1 and 2 weeks, vs solvent injection group, not statistically significant
  choroidal thickness ChT: only slightly increased
[1]; 1 and 2 weeks, vs solvent injection group, p=0.285
  choroidal blood perfusion ChBP: only slightly increased
[1]; vinpocetine 0.1 μM, 2 weeks
  effect on choroidal vasodilation compared with atropine: not as good as atropine
[1]; vinpocetine 1 μM, 1 week
  improvement of choroidal blood flow among vinpocetine concentrations: least effective at improving choroidal blood flow
[2]; high-, medium- and low-concentration vinpocetine (1, 0.1, 0.01 μM), 3 days
  effect of myopia treatment compared with the negative control group: showed the effect of myopia treatment
[2]; vinpocetine 1 μM 0.1 mL/day peribulbar injection, 3 days
  refraction difference between the experimental eye and the contralateral eye: −2.00±0.82 D
[2]; vinpocetine 1 μM, 3 days
  axial length difference between the experimental eye and the contralateral eye: 0.04±0.02 mm
  inhibition rate for the axial length: 55.5%
  inhibition rate for the vitreous chamber depth: 58.8%
  refraction inhibition rate: 38.5%
  vitreous chamber depth difference between the experimental eye and the contralateral eye: 0.03±0.03 mm
[2]; vinpocetine 1 μM, 7 days
  axial length difference between the experimental eye and the contralateral eye: 0.05±0.02 mm
  inhibition rate for the axial length: 53.8%
  inhibition rate for the vitreous chamber depth: 49.8%
  refraction difference between the experimental eye and the contralateral eye: −2.61±1.17 D
  refraction inhibition rate: 36.3%
  vitreous chamber depth difference between the experimental eye and the contralateral eye: 0.05±0.02 mm
[3]
  refraction change towards negative, axial length elongation and vitreous chamber depth increase vs negative control: significantly inhibited
rats; 20 mg/kg/day
  toxicity findings: no obvious abnormality
rats; 40 mg/kg
  toxicity findings: signs of weight loss and food intake reduction
rats; po
  LD50: approximately 500 mg/kg
Guinea pigs; guinea pig, in vivo
  common clinical adverse reactions or toxic manifestations such as weight loss: no individual was observed to have common clinical adverse reactions or toxic manifestations
Guinea pigs; local administration of vinpocetine
  allergic phenomenon: no allergic phenomenon
Guinea pigs; local administration of vinpocetine to young guinea pigs
  changes in the pupil size of the test eyes: No significant changes
Guinea pigs; vinpocetine group, local administration
  ocular abnormalities: No ocular abnormalities
